# Calls of active or inactive are those of the source. No cut-off for these calls is given here.
# Experiments:
# [1] = biological target: T1, Transcription factor SOX-18 (Mus musculus) (UniProt P43680); test: Competitive binding affinity to full-length mouse SOX18 expressed in Sf9 cells assessed as reduction in SOX1 8- DNA binding using FAM-labelled Prox1 -DNA element at 1 to 1000 uM incubated for 5 mins in dark at room temperature, 10 mins at 37 degC and 30 mins at room temperature by fluorescence polarization assay
# T1 sequence (whole entry): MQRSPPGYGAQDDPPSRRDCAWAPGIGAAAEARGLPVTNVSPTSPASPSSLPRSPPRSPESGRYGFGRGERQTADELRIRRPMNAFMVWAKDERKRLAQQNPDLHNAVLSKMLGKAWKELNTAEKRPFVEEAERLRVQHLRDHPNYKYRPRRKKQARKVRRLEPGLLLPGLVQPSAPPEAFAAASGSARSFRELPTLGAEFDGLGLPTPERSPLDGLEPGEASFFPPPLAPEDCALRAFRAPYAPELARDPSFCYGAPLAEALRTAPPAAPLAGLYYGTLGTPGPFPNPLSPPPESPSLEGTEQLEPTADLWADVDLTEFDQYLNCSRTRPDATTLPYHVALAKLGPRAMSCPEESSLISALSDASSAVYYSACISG
# [2] = Cytotoxicity in African green monkey COS7 cells assessed as reduction in cell viability incubated for 24 hrs by Alamar blue dye based assay; set-up: species or system COS-7; details: chlorocebus aethiops
# [3] = biological target: Adenosine receptor A1 (Homo sapiens) (UniProt P30542); test: Inhibition of human adenosine A1 receptor at 10 uM relative to control
# [4] = biological target: Histamine H1 receptor (Homo sapiens) (UniProt P35367); test: Inhibition of human histamine H1 receptor at 10 uM relative to control
# [5] = biological target: Muscarinic acetylcholine receptor M2 (Homo sapiens) (UniProt P08172); test: Inhibition of human muscarinic M2 receptor at 10 uM relative to control
# [6] = biological target: Muscarinic acetylcholine receptor M3 (Homo sapiens) (UniProt P20309); test: Inhibition of human muscarinic M3 receptor at 10 uM relative to control
# [7] = biological target: Prostaglandin E2 receptor EP4 subtype (Homo sapiens) (UniProt P35408); test: Inhibition of human EP4 receptor at 10 uM relative to control
# [8] = biological target: GABA-A receptor; anion channel (Rattus norvegicus) (UniProt O09028+P15431+P18506+P18508+P19969+P20236+P23574+P23576+P28471+P28473+P30191+P62813+P63079+P63138+Q91ZM7+Q9ES14); test: Inhibition of rat GABAA channel flunitrazepam binding site at 10 uM relative to control; assay type: protein-complex assay
# [9] = biological target: Neuronal acetylcholine receptor (Homo sapiens) (UniProt P17787+P30926+P32297+P43681+Q15822+Q9UGM1+Q15825+P30532+P36544+Q9GZZ6+Q05901); test: Inhibition of human nAChR at 10 uM relative to control
# [10] = species on record: Mus musculus; test: Inhibition of mouse phorbol ester receptor at 10 uM relative to control
# [11] = species on record: Rattus norvegicus; test: Inhibition of rat imidazoline I2 receptor at 10 uM relative to control
# [12] = biological target: Estrogen receptor (Homo sapiens) (UniProt P03372); test: Inhibition of human ERalpha at 10 uM relative to control
# Sequence of Estrogen receptor (Homo sapiens) (P03372 whole entry): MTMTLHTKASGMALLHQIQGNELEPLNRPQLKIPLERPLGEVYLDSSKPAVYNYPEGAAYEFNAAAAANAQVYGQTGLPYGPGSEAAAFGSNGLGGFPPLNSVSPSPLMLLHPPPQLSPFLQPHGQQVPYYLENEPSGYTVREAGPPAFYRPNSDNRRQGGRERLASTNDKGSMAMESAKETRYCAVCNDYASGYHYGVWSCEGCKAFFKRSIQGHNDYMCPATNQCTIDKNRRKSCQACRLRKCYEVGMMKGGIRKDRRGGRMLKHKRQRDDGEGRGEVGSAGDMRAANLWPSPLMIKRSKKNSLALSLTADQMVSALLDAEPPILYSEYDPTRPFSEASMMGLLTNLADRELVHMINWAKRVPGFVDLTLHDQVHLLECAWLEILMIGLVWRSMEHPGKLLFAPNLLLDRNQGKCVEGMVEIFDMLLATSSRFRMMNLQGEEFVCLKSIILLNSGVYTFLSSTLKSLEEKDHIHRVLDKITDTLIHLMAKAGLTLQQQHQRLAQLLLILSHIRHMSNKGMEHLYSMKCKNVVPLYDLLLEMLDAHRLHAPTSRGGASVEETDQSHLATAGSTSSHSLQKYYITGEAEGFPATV
# [13] = biological target: Glucocorticoid receptor (Homo sapiens) (UniProt P04150); test: Inhibition of human glucocorticoid receptor at 10 uM relative to control
# Sequence of Glucocorticoid receptor (Homo sapiens) (P04150 whole entry): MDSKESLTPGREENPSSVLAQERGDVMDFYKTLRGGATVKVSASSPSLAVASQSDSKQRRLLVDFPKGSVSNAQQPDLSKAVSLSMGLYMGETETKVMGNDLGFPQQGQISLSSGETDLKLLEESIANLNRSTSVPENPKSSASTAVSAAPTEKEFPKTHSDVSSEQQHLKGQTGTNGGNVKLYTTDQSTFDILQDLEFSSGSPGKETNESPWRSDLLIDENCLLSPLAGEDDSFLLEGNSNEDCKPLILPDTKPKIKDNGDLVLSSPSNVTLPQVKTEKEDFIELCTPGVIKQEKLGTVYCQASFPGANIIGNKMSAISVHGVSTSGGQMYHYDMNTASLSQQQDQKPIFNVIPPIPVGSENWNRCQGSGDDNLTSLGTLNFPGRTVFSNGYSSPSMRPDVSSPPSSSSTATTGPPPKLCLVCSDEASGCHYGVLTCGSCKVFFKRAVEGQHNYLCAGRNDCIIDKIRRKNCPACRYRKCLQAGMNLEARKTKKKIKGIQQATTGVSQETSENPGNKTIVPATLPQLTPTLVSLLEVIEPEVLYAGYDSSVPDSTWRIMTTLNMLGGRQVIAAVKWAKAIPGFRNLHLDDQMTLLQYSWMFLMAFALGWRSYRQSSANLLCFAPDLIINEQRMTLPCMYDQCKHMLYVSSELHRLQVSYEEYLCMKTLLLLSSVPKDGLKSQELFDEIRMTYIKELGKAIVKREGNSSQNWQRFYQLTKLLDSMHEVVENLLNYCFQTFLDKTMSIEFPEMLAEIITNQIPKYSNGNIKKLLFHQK
# [14] = biological target: Protein deacetylase HDAC6 (Homo sapiens) (UniProt Q9UBN7); test: Inhibition of human HDAC6 at 10 uM relative to control
# Sequence of Protein deacetylase HDAC6 (Homo sapiens) (Q9UBN7 whole entry): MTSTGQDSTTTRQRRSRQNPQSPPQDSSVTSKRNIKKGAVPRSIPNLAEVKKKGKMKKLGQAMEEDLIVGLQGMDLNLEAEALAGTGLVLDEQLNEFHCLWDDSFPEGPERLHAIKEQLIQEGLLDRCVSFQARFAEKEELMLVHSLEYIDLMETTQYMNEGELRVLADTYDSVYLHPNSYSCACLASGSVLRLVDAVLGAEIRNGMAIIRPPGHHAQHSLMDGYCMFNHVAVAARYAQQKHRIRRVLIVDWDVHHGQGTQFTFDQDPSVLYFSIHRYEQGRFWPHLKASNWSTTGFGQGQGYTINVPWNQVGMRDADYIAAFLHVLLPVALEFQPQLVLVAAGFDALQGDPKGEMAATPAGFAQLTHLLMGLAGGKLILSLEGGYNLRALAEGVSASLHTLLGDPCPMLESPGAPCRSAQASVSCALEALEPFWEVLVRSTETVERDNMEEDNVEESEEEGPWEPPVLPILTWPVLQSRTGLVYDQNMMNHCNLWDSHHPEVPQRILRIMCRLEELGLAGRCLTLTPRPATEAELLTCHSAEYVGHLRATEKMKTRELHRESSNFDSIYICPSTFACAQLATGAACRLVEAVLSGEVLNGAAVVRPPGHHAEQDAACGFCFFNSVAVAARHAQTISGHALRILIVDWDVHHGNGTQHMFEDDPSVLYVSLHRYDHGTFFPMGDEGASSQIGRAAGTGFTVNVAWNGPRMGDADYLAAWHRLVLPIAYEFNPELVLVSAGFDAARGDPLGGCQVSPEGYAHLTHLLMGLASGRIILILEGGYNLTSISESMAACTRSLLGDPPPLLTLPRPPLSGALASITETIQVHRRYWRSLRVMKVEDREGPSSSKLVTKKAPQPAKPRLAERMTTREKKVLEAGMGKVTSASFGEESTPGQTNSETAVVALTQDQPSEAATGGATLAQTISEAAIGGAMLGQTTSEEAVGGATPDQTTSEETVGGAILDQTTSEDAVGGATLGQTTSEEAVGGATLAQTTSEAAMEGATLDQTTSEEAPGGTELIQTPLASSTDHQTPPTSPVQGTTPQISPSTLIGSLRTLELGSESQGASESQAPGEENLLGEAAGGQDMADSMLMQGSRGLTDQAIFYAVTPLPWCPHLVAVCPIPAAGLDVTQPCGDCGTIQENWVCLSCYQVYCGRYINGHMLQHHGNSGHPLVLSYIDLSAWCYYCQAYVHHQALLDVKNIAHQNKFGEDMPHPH
# [15] = biological target: NAD-dependent protein deacetylase sirtuin-1 (Homo sapiens) (UniProt Q96EB6); test: Inhibition of human Sirtuin1 at 10 uM relative to control
# Sequence of NAD-dependent protein deacetylase sirtuin-1 (Homo sapiens) (Q96EB6 whole entry): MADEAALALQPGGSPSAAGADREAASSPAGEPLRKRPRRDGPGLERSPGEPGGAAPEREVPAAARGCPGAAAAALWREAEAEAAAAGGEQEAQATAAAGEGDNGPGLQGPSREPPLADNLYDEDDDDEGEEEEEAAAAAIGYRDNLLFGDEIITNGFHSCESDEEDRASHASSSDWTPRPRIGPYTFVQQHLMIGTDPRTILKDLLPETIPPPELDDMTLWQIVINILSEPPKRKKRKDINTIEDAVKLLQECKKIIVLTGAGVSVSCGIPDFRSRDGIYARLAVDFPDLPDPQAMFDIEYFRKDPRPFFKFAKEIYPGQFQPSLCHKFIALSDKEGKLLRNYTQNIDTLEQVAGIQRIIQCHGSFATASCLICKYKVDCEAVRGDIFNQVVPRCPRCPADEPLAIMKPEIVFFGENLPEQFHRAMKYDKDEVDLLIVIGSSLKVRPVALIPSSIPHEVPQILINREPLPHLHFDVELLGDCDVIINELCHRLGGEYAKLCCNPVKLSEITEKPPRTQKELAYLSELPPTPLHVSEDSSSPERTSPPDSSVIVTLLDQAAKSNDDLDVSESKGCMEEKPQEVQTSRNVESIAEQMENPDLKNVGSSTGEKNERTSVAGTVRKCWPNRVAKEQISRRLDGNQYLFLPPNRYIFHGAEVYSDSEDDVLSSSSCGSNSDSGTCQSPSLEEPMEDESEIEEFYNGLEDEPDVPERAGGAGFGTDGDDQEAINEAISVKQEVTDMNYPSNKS
# [16] = biological target: Transcription factor SOX-9 (Homo sapiens) (UniProt P48436); test: Inhibition of SOX9 in HUVEC assessed as reduction of SOX9-SOX9 interactions up to 200 uM incubated for 45 mins by Alpha-screen assay; assay type: cell-based
# Sequence of Transcription factor SOX-9 (Homo sapiens) (P48436 whole entry): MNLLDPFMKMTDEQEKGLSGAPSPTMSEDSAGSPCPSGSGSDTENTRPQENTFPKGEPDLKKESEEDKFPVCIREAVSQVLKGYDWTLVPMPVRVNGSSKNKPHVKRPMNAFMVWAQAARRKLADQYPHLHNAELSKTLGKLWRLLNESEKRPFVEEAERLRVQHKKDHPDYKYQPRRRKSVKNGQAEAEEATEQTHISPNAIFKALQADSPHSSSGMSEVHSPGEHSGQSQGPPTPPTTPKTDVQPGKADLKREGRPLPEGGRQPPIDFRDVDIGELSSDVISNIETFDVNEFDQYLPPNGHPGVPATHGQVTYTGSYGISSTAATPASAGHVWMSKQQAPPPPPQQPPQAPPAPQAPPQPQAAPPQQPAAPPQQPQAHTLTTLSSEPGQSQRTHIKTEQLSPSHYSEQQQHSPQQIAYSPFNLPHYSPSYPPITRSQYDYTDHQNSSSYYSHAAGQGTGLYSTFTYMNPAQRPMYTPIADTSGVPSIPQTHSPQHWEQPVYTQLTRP
# [17] = biological target: Protein c-Fos (Homo sapiens) (UniProt P01100); test: Inhibition of c-FOS in HUVEC assessed as reduction of c-FOS transcriptional activity by genome-wide RNA-seq and ChlP-seq analysis; assay type: cell-based
# Sequence of Protein c-Fos (Homo sapiens) (P01100 whole entry): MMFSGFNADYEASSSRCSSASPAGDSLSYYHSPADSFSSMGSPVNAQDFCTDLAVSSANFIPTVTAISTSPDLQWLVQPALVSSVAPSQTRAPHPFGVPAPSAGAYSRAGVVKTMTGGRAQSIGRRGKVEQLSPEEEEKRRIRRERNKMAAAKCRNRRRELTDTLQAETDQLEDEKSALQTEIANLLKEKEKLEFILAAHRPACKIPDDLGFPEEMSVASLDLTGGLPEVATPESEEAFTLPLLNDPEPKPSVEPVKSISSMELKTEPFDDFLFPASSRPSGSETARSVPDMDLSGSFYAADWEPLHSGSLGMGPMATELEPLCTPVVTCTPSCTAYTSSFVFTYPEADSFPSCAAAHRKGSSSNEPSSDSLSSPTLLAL
# [18] = biological target: Transcription factor Jun (Homo sapiens) (UniProt P05412); test: Inhibition of c-JUN in HUVEC assessed as reduction of c-JUN transcriptional activity by genome-wide RNA-seq and ChlP-seq analysis; assay type: cell-based
# Sequence of Transcription factor Jun (Homo sapiens) (P05412 whole entry): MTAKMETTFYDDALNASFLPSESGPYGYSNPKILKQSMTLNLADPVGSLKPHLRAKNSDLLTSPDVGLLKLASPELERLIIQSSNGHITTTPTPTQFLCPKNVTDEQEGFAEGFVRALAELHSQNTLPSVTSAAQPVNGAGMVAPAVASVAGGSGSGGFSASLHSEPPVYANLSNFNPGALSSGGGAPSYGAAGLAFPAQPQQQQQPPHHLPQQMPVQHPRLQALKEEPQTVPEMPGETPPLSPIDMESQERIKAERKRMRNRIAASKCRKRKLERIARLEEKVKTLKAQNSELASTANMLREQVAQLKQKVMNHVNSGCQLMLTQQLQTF
# [19] = biological target: Myc proto-oncogene protein (Homo sapiens) (UniProt P01106); test: Inhibition of c-MYC in HUVEC assessed as reduction of c-MYC transcriptional activity by genome-wide RNA-seq and ChlP-seq analysis; assay type: cell-based
# Sequence of Myc proto-oncogene protein (Homo sapiens) (P01106 whole entry): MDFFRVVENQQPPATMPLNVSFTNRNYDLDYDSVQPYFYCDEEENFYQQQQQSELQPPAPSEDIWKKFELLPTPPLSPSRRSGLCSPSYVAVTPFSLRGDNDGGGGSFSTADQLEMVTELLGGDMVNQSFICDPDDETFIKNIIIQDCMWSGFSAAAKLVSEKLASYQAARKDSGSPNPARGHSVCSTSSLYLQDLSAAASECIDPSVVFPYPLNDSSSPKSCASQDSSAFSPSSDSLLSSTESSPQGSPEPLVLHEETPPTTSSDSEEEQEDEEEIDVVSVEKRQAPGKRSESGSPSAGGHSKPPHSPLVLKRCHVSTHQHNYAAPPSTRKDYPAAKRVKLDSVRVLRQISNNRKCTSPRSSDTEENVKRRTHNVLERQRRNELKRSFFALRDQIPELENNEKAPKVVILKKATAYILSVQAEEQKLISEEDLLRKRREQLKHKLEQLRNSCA
# [20] = tested on: Danio rerio; test: Induction of vascular phenotype changes in zebrafish larvae harboring fli1 a:eGFP,-6.5kdrl:mCherry assessed as induction of posterior cardinal vein enlargement with arteriovenous shunts and incomplete trunk circulation at 1.5 uM dosed starting from 16 hpf; assay type: functional, organism-based
# [21] = tested on: Danio rerio; test: Induction of arterial and venous genes dys-regulation in zebrafish larvae harboring fli1 a:eGFP,-6.5kdrl:mCherry assessed as effect on cdh5 gene expression at 1.5 uM dosed starting from 16 hpf and measured at 24 and 48 hpf by qRT-PCR analysis; assay type: functional, organism-based
# [22] = tested on: Danio rerio; test: Induction of arterial and venous genes dys-regulation in zebrafish larvae harboring fli1 a:eGFP,-6.5kdrl:mCherry assessed as effect on efnb2a gene expression at 1.5 uM dosed starting from 16 hpf and measured at 24 and 48 hpf by qRT-PCR analysis; assay type: functional, organism-based
# [23] = tested on: Danio rerio; test: Induction of arterial and venous genes dys-regulation in zebrafish larvae harboring fli1 a:eGFP,-6.5kdrl:mCherry assessed as effect on notch1b gene expression at 1.5 uM dosed starting from 16 hpf and measured at 24 and 48 hpf by qRT-PCR analysis; assay type: functional, organism-based
# [24] = tested on: Danio rerio; test: Induction of arterial and venous genes dys-regulation in zebrafish larvae harboring fli1 a:eGFP,-6.5kdrl:mCherry assessed as effect on […] gene expression at 1.5 uM dosed starting from 16 hpf and measured at 24 and 48 hpf by qRT-PCR analysis; assay type: functional, organism-based
# [25] = tested on: Danio rerio; test: Induction of arterial and venous genes dys-regulation in zebrafish larvae harboring fli1 a:eGFP,-6.5kdrl:mCherry assessed as effect on prox1a gene expression at 1.5 uM dosed starting from 16 hpf and measured at 24 and 48 hpf by qRT-PCR analysis; assay type: functional, organism-based
# [26] = Plasma concentration in BALB/c mouse xenografted with mouse 4T1.2 cells at 25 mg/kg/day for 10 days measured at day 7; assay type: ADME, organism-based
# [27] = tested on: 4T1.2; test: Inhibition of tumor induced vascular response in mouse 4T1.2 cells implanted BALB/c mouse assessed as reduction in blood vessel coverage at 25 mg/kg/day for 10 days by bright field microscopy; assay type: functional, organism-based
# [28] = tested on: 4T1.2; test: Inhibition of tumor induced vascular response in mouse 4T1.2 cells implanted BALB/c mouse assessed as reduction in volume of the blood vessels in tumor region at 25 mg/kg/day for 10 days by ERG/EMCN-detection based immunofluorescent staining relative to control; assay type: functional; details: 4T1.2, 240 h
# [29] = tested on: 4T1.2; test: Inhibition of tumor induced lymphangiogenesis response in mouse 4T1.2 cells implanted BALB/c mouse assessed as reduction in number of lymphatic endothelial cells at 25 mg/kg/day for 10 days by PROX1/podoplanin detection based immunofluorescent staining relative to control; assay type: functional; details: 4T1.2, 240 h
structure (smiles),measurement,setting,value
O=C(O)c1c(O)cccc1CCc1ccc2ccccc2c1,Activity,[1],Active
same,CC50 at 24 h,[2],117 µM
same,inhibition,[3],-8%
same,inhibition,[4],2%
same,inhibition,[5],13%
same,inhibition,[6],8%
same,inhibition,[7],27%
same,inhibition,[8],-6%
same,inhibition,[9],3%
same,inhibition,[10],15%
same,inhibition,[11],11%
same,inhibition,[12],-10%
same,inhibition,[13],12%
same,inhibition,[14],1.1%
same,inhibition,[15],0%
same,inhibition,[16],inactive
same,inhibition,[17],inactive
same,inhibition,[18],inactive
same,inhibition,[19],inactive
same,Activity,[20],Active
same,Activity,[21],Active
same,Activity,[22],Active
same,Activity,[23],Active
same,Activity,[24],Active
same,Activity,[25],Active
same,concentration at 240 h,[26],38300 ng/mL
same,inhibition,[27],Active
same,inhibition in vivo at 25 mg/kg/day,[28],55%
same,inhibition in vivo at 25 mg/kg/day,[29],70%

# Source: ChEMBL document CHEMBL4420080, “Inhibitors of sox18 protein activity for treating angiogenesis- and/or lymphangiogenesis-related diseases” (2018)
